Test results reported in PMC3666759, “ATP Dependent Rotational Motion of Group II Chaperonin Observed by X-ray Single Molecule Tracking” (PLoS ONE, 2013).

Molecular target: T1, TKS1-Cpn (group II chaperonin from Thermococcus strain KS-1) (Thermococcus sp. JCM 11816, UniProt P61112, D263C/C366S)
T1 construct: gene thsA; full-length recombinant chaperonin, purified to homogeneity, double-ring homo-oligomer
Experiment: diffracted X-ray tracking (DXT), single molecule
Assay type: binding
Conditions: 2 mM ATP; MOPS pH 7.0, 100 mM KCl, 5 mM MgCl2, about 60 °C; immobilised on gold, gold nanocrystal label

T1 sequence (P61112 whole entry D263C/C366S): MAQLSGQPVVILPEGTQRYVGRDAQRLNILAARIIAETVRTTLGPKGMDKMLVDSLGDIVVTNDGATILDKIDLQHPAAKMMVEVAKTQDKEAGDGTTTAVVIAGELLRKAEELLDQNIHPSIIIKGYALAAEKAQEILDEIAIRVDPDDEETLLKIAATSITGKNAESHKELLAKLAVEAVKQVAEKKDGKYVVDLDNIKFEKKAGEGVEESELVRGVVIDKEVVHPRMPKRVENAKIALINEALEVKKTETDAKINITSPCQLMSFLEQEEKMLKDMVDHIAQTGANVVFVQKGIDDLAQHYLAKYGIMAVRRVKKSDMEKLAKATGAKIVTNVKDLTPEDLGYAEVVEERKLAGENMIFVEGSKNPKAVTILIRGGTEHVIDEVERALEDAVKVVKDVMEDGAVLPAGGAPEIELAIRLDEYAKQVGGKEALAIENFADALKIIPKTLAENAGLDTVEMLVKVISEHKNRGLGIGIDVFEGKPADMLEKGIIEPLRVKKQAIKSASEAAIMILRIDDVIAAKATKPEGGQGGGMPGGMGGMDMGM

Nc1ncnc2c1ncn2[C@@H]1O[C@H](COP(=O)(O)OP(=O)(O)OP(=O)(O)O)[C@@H](O)[C@H]1O [ATP]
diffracted X-ray tracking (DXT), single molecule: Angular displacement in the χ direction was clearly activated by the addition of ATP.
